According to PubChem BioAssay AID248 (DTP/NCI, 2004):
“And” between values parts separate entries of the source, which are not always exact repeats. Identical values can stand only once. Toxic doses and inconclusive results are not listed.

Test system: L1210 leukemia ip in BDF1 mice, survival T/C
Experiment: NCI In Vivo Anticancer Drug Screen. Data for tumor model L1210 Leukemia (intraperitoneal) in B6D2F1 (BDF1) mice
Conditions: endpoint: mean survival time, higher = longer survival
In short: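 In this screen, tumor-bearing mice given compound are compared to those given vehicle, and their survival values are reported as a treated-to-control quotient.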

[1] = dose: 50.0 mg/kg/injection, schedule: Q01DX001 (ip), vehicle: carboxymethylcellulose (CMC)
[2] = dose: 100.0 mg/kg/injection, schedule: Q01DX001 (ip), vehicle: carboxymethylcellulose (CMC)
[3] = dose: 200.0 mg/kg/injection, schedule: Q01DX001 (ip), vehicle: carboxymethylcellulose (CMC)
[4] = dose: 400.0 mg/kg/injection, schedule: Q01DX001 (ip), vehicle: carboxymethylcellulose (CMC)
[5] = dose: 100.0 mg/kg/injection, schedule: Q01DX009 (ip), vehicle: other
[6] = dose: 100.0 mg/kg/injection, schedule: Q01DX009 (ip), vehicle: saline with Tween-80
[7] = dose: 200.0 mg/kg/injection, schedule: Q01DX009 (ip), vehicle: saline with Tween-80
[8] = dose: 100.0 mg/kg/injection, schedule: Q01DX001 (ip), vehicle: saline
[9] = dose: 200.0 mg/kg/injection, schedule: Q01DX001 (ip), vehicle: saline
[10] = dose: 400.0 mg/kg/injection, schedule: Q01DX001 (ip), vehicle: saline
[11] = dose: 100.0 mg/kg/injection, schedule: Q01DX009 (ip), vehicle: saline
[12] = dose: 200.0 mg/kg/injection, schedule: Q01DX009 (ip), vehicle: saline
[13] = dose: 100.0 mg/kg/injection, schedule: Q01DX001 (ip), vehicle: Klucel (hydroxypropylcellulose) (HPC)
[14] = dose: 200.0 mg/kg/injection, schedule: Q01DX001 (ip), vehicle: Klucel (hydroxypropylcellulose) (HPC)
[15] = dose: 400.0 mg/kg/injection, schedule: Q01DX001 (ip), vehicle: Klucel (hydroxypropylcellulose) (HPC)

## Cc1ccc(S(=O)(=O)Nc2c(C)cc([N+](=O)[O-])cc2C)cc1
[1]
  T/C: 119 % of control
[2]
  T/C: 96 % of control
[3]
  T/C: 102 % of control
[4]
  T/C: 100 % of control

## CN(C)c1c(F)c(F)c(N=Nc2ccccc2)c(F)c1F
[2]
  T/C: 98 % of control
[3]
  T/C: 114 % of control
[4]
  T/C: 98 % of control

## CCOC(=O)C(C(=O)O)(C(c1ccccc1)c1ccccc1)C(c1ccccc1)c1ccccc1
dose: 75.0 mg/kg/injection, schedule: Q01DX001 (ip), vehicle: carboxymethylcellulose (CMC)
  T/C: 90 % of control

## COC1N(c2ccccc2)CCN1c1ccccc1
dose: 100.0 mg/kg/injection, schedule: Q04DX002 (ip), vehicle: gum acacia
  T/C: 109 % of control
dose: 200.0 mg/kg/injection, schedule: Q04DX002 (ip), vehicle: gum acacia
  T/C: 106 % of control
dose: 400.0 mg/kg/injection, schedule: Q04DX002 (ip), vehicle: gum acacia
  T/C: 106 % of control

## CN1CCCCC(=N\O)/C(=N/O)CCCC1
[1]
  T/C: 89 % of control
[2]
  T/C: 89 % of control
[3]
  T/C: 104 % of control

## COc1ccc(Nc2cc(=S)nc(N)[nH]2)cc1
dose: 100.0 mg/kg/injection, schedule: Q01DX Z (ip), vehicle: methylcellulose (MC)
  T/C: 100 % of control
dose: 200.0 mg/kg/injection, schedule: Q01DX Z (ip), vehicle: methylcellulose (MC)
  T/C: 115 % of control

## CC(Cl)CN(N=O)C(=O)NC1CCCCC1 (stereo not given)
dose: 16.0 mg/kg/injection, schedule: Q01DX001 (ip), vehicle: other
  T/C: 96 % of control
dose: 31.0 mg/kg/injection, schedule: Q01DX001 (ip), vehicle: other
  T/C: 104 % of control
dose: 62.0 mg/kg/injection, schedule: Q01DX001 (ip), vehicle: other
  T/C: 102 % of control
dose: 125.0 mg/kg/injection, schedule: Q01DX001 (ip), vehicle: other
  T/C: 104 % of control
dose: 187.0 mg/kg/injection, schedule: Q01DX001 (ip), vehicle: other
  T/C: 117 % of control
dose: 250.0 mg/kg/injection, schedule: Q01DX001 (ip), vehicle: other
  T/C: 94 % of control
dose: 375.0 mg/kg/injection, schedule: Q01DX001 (ip), vehicle: other
  T/C: 122 % of control
dose: 500.0 mg/kg/injection, schedule: Q01DX001 (ip), vehicle: other
  T/C: 167 % of control
dose: 750.0 mg/kg/injection, schedule: Q01DX001 (ip), vehicle: other
  T/C: 187 % of control

## COc1ccc([N+](=O)[O-])cc1NS(=O)(=O)c1ccc(Cl)c([N+](=O)[O-])c1
dose: 50.0 mg/kg/injection, schedule: Q01DX009 (ip), vehicle: saline with Tween-80
  T/C: 95 % of control and 90 % of control
dose: 50.0 mg/kg/injection, schedule: Q04DX003 (ip), vehicle: other
  T/C: 97 % of control
[5]
  T/C: 105 % of control
[6]
  T/C: 93 % of control and 106 % of control
dose: 100.0 mg/kg/injection, schedule: Q04DX002 (ip), vehicle: other
  T/C: 107 % of control and 113 % of control
dose: 100.0 mg/kg/injection, schedule: Q04DX003 (ip), vehicle: other
  T/C: 96 % of control
[7]
  T/C: 95 % of control
dose: 200.0 mg/kg/injection, schedule: Q04DX002 (ip), vehicle: other
  T/C: 96 % of control and 102 % of control
dose: 200.0 mg/kg/injection, schedule: Q04DX003 (ip), vehicle: other
  T/C: 89 % of control
dose: 400.0 mg/kg/injection, schedule: Q01DX009 (ip), vehicle: other
  T/C: 87 % of control
dose: 400.0 mg/kg/injection, schedule: Q01DX009 (ip), vehicle: saline with Tween-80
  T/C: 95 % of control
dose: 400.0 mg/kg/injection, schedule: Q04DX002 (ip), vehicle: other
  T/C: 101 % of control and 102 % of control

## CCOc1ccc2nc(/C=C/c3ccccc3)ccc2c1
[3]
  T/C: 89 % of control
[4]
  T/C: 101 % of control

## CC(C)(C)OC1C2C=CC1C=C2 (stereo not given)
dose: 12.5 mg/kg/injection, schedule: Q04DX003 (ip), vehicle: Klucel (hydroxypropylcellulose) (HPC)
  T/C: 93 % of control
dose: 25.0 mg/kg/injection, schedule: Q04DX003 (ip), vehicle: Klucel (hydroxypropylcellulose) (HPC)
  T/C: 91 % of control
dose: 50.0 mg/kg/injection, schedule: Q04DX003 (ip), vehicle: Klucel (hydroxypropylcellulose) (HPC)
  T/C: 91 % of control
dose: 100.0 mg/kg/injection, schedule: Q04DX003 (ip), vehicle: Klucel (hydroxypropylcellulose) (HPC)
  T/C: 95 % of control

## COc1ccccc1N=Nc1c(O)n(-c2ccccc2)c(=S)n(-c2ccccc2)c1=O
dose: 100.0 mg/kg/injection, schedule: Q01DX001 (ip), vehicle: saline with Tween-80
  T/C: 106 % of control
dose: 200.0 mg/kg/injection, schedule: Q01DX001 (ip), vehicle: saline with Tween-80
  T/C: 95 % of control
dose: 400.0 mg/kg/injection, schedule: Q01DX001 (ip), vehicle: saline with Tween-80
  T/C: 94 % of control

## CC(=O)[C@H]1C[C@@H](CC(=O)O)C1(C)C
[8]
  T/C: 106 % of control
dose: 100.0 mg/kg/injection, schedule: Q04DX003 (ip), vehicle: saline
  T/C: 96 % of control
[9]
  T/C: 103 % of control
dose: 200.0 mg/kg/injection, schedule: Q04DX003 (ip), vehicle: saline
  T/C: 88 % of control
[10]
  T/C: 97 % of control
dose: 400.0 mg/kg/injection, schedule: Q04DX003 (ip), vehicle: saline
  T/C: 96 % of control

## COC(=O)c1ccccc1NC(=O)Nc1cccc(C(F)(F)F)c1
dose: 100.0 mg/kg/injection, schedule: Q04DX002 (ip), vehicle: Klucel (hydroxypropylcellulose) (HPC)
  T/C: 101 % of control
dose: 200.0 mg/kg/injection, schedule: Q04DX002 (ip), vehicle: Klucel (hydroxypropylcellulose) (HPC)
  T/C: 92 % of control
dose: 400.0 mg/kg/injection, schedule: Q04DX002 (ip), vehicle: Klucel (hydroxypropylcellulose) (HPC)
  T/C: 105 % of control

## CCOC(O)(C=O)C1CCCN1 (stereo not given)
[8]
  T/C: 100 % of control
[11]
  T/C: 104 % of control
[9]
  T/C: 97 % of control
[12]
  T/C: 101 % of control
[10]
  T/C: 97 % of control
dose: 400.0 mg/kg/injection, schedule: Q01DX009 (ip), vehicle: saline
  T/C: 95 % of control

## CC(=O)[O][Hg][c]1cc(-c2ccc(N=Nc3c(S(=O)(=O)O)cc4cccc(N)c4c3O)cc2)ccc1N=Nc1c(S(=O)(=O)O)cc2cccc(N)c2c1O
dose: 3.13 mg/kg/injection, schedule: Q01DX009 (ip), vehicle: saline with Tween-80
  T/C: 86 % of control
dose: 6.25 mg/kg/injection, schedule: Q01DX009 (ip), vehicle: saline with Tween-80
  T/C: 86 % of control
dose: 12.5 mg/kg/injection, schedule: Q01DX009 (ip), vehicle: saline with Tween-80
  T/C: 92 % of control

## N#CC1(C(N)=O)OC12CCS(=O)(=O)c1ccccc12 (stereo not given)
[8]
  T/C: 87 % of control
[9]
  T/C: 94 % of control

## C1=CC2CC1CC2CNCCN1CC1 (stereo not given)
dose: 10.0 mg/kg/injection, schedule: Q04DX003 (ip), vehicle: saline
  T/C: 106 % of control
dose: 20.0 mg/kg/injection, schedule: Q04DX003 (ip), vehicle: saline
  T/C: 87 % of control

## C=CCOC(=O)C(C)O (stereo not given)
dose: 50.0 mg/kg/injection, schedule: Q01DX009 (ip), vehicle: saline
  T/C: 98 % of control
[8]
  T/C: 105 % of control
[11]
  T/C: 98 % of control
[9]
  T/C: 105 % of control
[12]
  T/C: 98 % of control

## CCCc1c(C)nc(N)[nH]c1=O
[13]
  T/C: 102 % of control
[14]
  T/C: 100 % of control
[15]
  T/C: 97 % of control

## Nc1[nH]c(=O)[nH]c(=O)c1N=Nc1ccc(S(=O)(=O)Nc2nccs2)cc1
[8]
  T/C: 98 % of control
[9]
  T/C: 100 % of control
[10]
  T/C: 102 % of control

## CCCC/C=C/C1C=CCCC1 (stereo not given)
dose: 50.0 mg/kg/injection, schedule: Q01DX009 (ip), vehicle: other
  T/C: 100 % of control
[5]
  T/C: 95 % of control
dose: 200.0 mg/kg/injection, schedule: Q01DX009 (ip), vehicle: other
  T/C: 100 % of control

## Nc1nc(N)c2c(n1)SCC(/C=N/O)=N2
[13]
  T/C: 108 % of control
[14]
  T/C: 95 % of control
[15]
  T/C: 97 % of control

## CCCCCCCCCCCCC(O)C(O)CCCCCCCC(=O)O (stereo not given)
dose: 100.0 mg/kg/injection, schedule: Q01DX009 (ip), vehicle: Klucel (hydroxypropylcellulose) (HPC)
  T/C: 94 % of control
dose: 200.0 mg/kg/injection, schedule: Q01DX009 (ip), vehicle: Klucel (hydroxypropylcellulose) (HPC)
  T/C: 93 % of control
dose: 400.0 mg/kg/injection, schedule: Q01DX009 (ip), vehicle: Klucel (hydroxypropylcellulose) (HPC)
  T/C: 93 % of control

## O=C1c2ccccc2C(=O)N1CNc1ccc(Oc2ccc(Cl)cc2)cc1
[6]
  T/C: 93 % of control
[7]
  T/C: 93 % of control
